Laboratory results taken from ChEMBL document CHEMBL4177767, “Discovery of N2-(4-Amino-cyclohexyl)-9-cyclopentyl- N6-(4-morpholin-4-ylmethyl-phenyl)- 9H-purine-2,6-diamine as a Potent FLT3 Kinase Inhibitor for Acute Myeloid Leukemia with FLT3 Mutations” (J Med Chem, 2018).

What was measured:
MV4-11 = assay: Growth inhibition of human MV4-11 cells after 72 hrs by calcein AM dye-based fluorescence assay; assay type: functional; details: MV4-11, 72 h
MOLM-13 = assay: cells; details: Homo sapiens, MOLM-13, 72 h
in vitro [1] = details: human, MRC5 cells
THP-1 = assay: cells; details: Homo sapiens, THP-1, 72 h
[2] = biological target: Receptor-type tyrosine-protein kinase FLT3 (Homo sapiens, UniProt P36888, ITD); assay: biochemical; assay type: cell-based, Sf9
Description: Inhibition of N-terminal GST/His6-fused recombinant human FLT3 (R571 to S993 residues) ITD mutant expressed in Sf9 insect cells using poly (Ala,Glu,Lys,Tyr) 6:2:5:1 hydrobromide as substrate in presence of [gamma-33P]ATP

U-937 = assay: cells; details: Homo sapiens, U-937, 72 h
HCC827 = assay: cells; details: Homo sapiens, HCC827, 72 h
in vitro [3] = details: human, HUVEC
[4] = biological target: T1, Receptor-type tyrosine-protein kinase FLT3 (Homo sapiens, UniProt P36888); assay: biochemical; assay type: cell-based, Sf9
T1 sequence (P36888 whole entry): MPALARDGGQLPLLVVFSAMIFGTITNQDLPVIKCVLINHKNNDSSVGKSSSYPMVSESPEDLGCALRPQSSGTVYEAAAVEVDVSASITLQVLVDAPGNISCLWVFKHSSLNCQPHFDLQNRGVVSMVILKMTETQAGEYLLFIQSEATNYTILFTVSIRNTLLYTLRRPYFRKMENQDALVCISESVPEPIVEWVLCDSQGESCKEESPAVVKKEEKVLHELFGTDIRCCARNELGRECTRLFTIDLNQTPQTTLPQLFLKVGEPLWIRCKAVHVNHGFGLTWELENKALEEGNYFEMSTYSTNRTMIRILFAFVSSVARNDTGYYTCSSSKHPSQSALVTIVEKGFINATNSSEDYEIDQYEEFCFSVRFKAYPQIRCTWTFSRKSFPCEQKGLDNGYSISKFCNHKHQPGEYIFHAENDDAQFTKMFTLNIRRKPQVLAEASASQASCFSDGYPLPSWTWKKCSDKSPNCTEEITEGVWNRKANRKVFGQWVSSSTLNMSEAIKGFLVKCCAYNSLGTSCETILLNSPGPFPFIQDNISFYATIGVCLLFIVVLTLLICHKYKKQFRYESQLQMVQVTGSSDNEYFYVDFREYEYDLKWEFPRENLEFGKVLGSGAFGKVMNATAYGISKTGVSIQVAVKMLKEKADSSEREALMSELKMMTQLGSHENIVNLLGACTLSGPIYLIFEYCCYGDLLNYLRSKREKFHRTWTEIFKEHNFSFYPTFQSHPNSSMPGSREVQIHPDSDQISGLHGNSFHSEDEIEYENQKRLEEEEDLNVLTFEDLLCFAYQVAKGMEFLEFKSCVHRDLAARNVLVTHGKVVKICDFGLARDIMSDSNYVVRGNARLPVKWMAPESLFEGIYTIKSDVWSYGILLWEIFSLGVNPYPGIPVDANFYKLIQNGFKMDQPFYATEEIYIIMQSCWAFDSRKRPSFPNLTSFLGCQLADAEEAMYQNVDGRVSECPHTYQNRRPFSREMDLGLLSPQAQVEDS
Description: Inhibition of N-terminal GST/His6-fused recombinant wild type human FLT3 (R571 to S993 residues) expressed in Sf9 insect cells using poly (Ala,Glu,Lys,Tyr) 6:2:5:1 hydrobromide as substrate in presence of [gamma-33P]ATP

Kasumi 1 = assay: cells; details: Homo sapiens, Kasumi 1, 72 h
[5] = biological target: Receptor-type tyrosine-protein kinase FLT3 (Homo sapiens, UniProt P36888, D835Y); assay: biochemical; assay type: cell-based, Sf9
Description: Inhibition of N-terminal GST/His6-fused recombinant human FLT3 (R571 to S993 residues) D835Y mutant expressed in Sf9 insect cells using poly (Ala,Glu,Lys,Tyr) 6:2:5:1 hydrobromide as substrate in presence of [gamma-33P]ATP

K562 = assay: cells; details: Homo sapiens, K562, 72 h
in vitro [6] = details: human, BJ cells
MCF7 = assay: cells; details: Homo sapiens, MCF7, 72 h

| GI50 (MV4-11) [nM] | GI50 (MOLM-13) [nM] | GI50 at 72 h (in vitro [1]) [nM] | GI50 (THP-1) [nM] | IC50 [2] [nM] | GI50 (U-937) [nM] | GI50 (HCC827) [nM] | GI50 at 72 h (in vitro [3]) [nM] | IC50 [4] [nM] | IC50 [5] [nM] | GI50 (K562) [nM] | GI50 at 72 h (in vitro [6]) [nM] | GI50 (MCF7) [nM] | SMILES | GI50 (Kasumi 1) [nM] |
| --- | --- | --- | --- | --- | --- | --- | --- | --- | --- | --- | --- | --- | --- | --- |
| 18 | 24 | 14000 | 3110 | 3 | 3170 | 1070 | 12100 | 21 | 11 | 940 | 15900 | 487 | N[C@H]1CC[C@H](Nc2nc(Nc3ccc(N4CCCC4)cc3)c3ncn(C4CCCC4)c3n2)CC1 | 569 |
| 3 | 4 | 9800 | 693 | 4 | 638 | 456 | 5950 | 13 | 28 | 1220 | 14600 | 1060 | N[C@H]1CC[C@H](Nc2nc(Nc3ccc(N4CC5(COC5)C4)cc3)c3ncn(C4CCCC4)c3n2)CC1 | 734 |
| 196 | 122 | 23900 | > 10000 | 26 | 9790 | > 5000 | 10100 | 83 | 624 | 3600 | > 25000 | 8600 | c1ccc(CNc2nc(Nc3ccc(CN4CCOCC4)cc3)c3ncn(C4CCCC4)c3n2)cc1 | 4760 |
| 10 | 15 | 20600 | 2280 | 4 | 1800 | 1280 | 10100 | 16 | 4 | 670 | 14700 | 520 | N[C@H]1CC[C@H](Nc2nc(Nc3ccc(Br)cc3)c3ncn(C4CCCC4)c3n2)CC1 | 481 |
| 2 | 4 | 23300 | 1160 | 2 | 1570 | 521 | 4530 | 21 | 7 | 965 | 12200 | 320 | N[C@H]1CC[C@H](Nc2nc(Nc3ccc(N4CCOCC4)cc3)c3ncn(C4CCCC4)c3n2)CC1 | 816 |
| 11 | 19 | 3880 | 3740 | 1 | 1340 | 1660 | 6260 |  | 5 | 2100 | 10400 | 2100 | NCCCCNc1nc(Nc2ccc(CN3CCOCC3)cc2)c2ncn(C3CCCC3)c2n1 | 2240 |
| 12 | 4 | 10300 | 4360 | 1 | 3420 | 976 | 11400 |  | 3 | 1340 | 15400 | 2150 | CCN1CCN(c2ccc(Nc3nc(NCCCCN)nc4c3ncn4C3CCCC3)cc2)CC1 | 2070 |
| 35 | 20 | 5880 | 2420 | 5 | 3630 | 1120 | 14200 |  | 65 | 1530 | 11200 | 2120 | NCCCCCNc1nc(Nc2ccc(CN3CCOCC3)cc2)c2ncn(C3CCCC3)c2n1 | 1280 |
| 11 | 17 | 7560 | 6910 | 4 | 4070 | 1410 | 8060 |  | 7 | 3490 | 13000 | 3260 | NCCCCNc1nc(Nc2ccc(N3CCOCC3)cc2)c2ncn(C3CCCC3)c2n1 | 2020 |
| 1 | 4 | 22000 | 514 | 3 | 605 | 592 | 4440 | 10 | 2 | 2070 | 12900 | 1050 | CCN1CCN(c2ccc(Nc3nc(N[C@H]4CC[C@H](N)CC4)nc4c3ncn4C3CCCC3)cc2)CC1 | 839 |
| 86 | 54 | 4090 | 3590 | 10 | 2920 | 2250 | 10300 |  | 69 | 3790 | 7260 | 5000 | NCCCCCCNc1nc(Nc2ccc(CN3CCOCC3)cc2)c2ncn(C3CCCC3)c2n1 | 1020 |
